# US5707990A, “2-substituted amino and thio alkyl benzoxazine antimicrobial agents” (Ortho Pharmaceutical Corporation, priority 1996, dated 1998)
# Molecular target: T1, Kinase A and SpoOF (Bacillus subtilis, UniProt P16497)
# T1 construct: made in house; host or cells: recombinant E. coli
# T1 sequence (P16497 1-606): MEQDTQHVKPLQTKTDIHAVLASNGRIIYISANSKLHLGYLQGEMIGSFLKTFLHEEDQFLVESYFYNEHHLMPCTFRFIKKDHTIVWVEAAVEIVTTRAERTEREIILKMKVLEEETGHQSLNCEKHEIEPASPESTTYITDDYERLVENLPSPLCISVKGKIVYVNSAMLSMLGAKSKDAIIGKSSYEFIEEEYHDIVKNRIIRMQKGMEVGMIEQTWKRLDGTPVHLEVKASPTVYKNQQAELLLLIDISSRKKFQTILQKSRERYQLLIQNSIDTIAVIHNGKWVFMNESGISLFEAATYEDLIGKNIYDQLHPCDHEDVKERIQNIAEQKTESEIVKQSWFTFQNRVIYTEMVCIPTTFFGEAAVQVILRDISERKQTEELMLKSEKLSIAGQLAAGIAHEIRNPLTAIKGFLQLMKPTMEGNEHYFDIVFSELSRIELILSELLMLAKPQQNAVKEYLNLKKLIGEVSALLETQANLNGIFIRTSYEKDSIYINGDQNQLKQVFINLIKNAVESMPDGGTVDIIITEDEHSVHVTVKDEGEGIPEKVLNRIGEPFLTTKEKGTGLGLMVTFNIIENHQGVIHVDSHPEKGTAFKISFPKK
# Test: Autophosphorylation of Kinase A and Transphosphorylation of SpoOF Assay (HPK in vitro assay)
# Type: biochemical
# Conditions: [32P]ATP, gel/phosphoimager, inhibitor concentrations from 1 to 500 μM, IC50 of less than 1000 μM considered active
# Method: Autophosphorylation of Kinase A and Transphosphorylation of SpoOF Assay
# To study the effect of the compounds of the present invention on the signal transduction process in bacteria, the inhibiting effect of the compounds on the sporulation operon proteins Kinase A and SpoOF was examined. Specifically, the inhibition of autophosphorylation of Kinase A and the transphosphorylation of SpoOF was determined in the following assays. The SpoOF response regulator is the primary substrate for phosphorylation by the protein kinase, Kin A, involved in the sporulation process in bacteria. See D. Burbulys, K. A. Trach, J. A. Hoch, Cell, 64, 545-552 (1991 ). SpoOF and KinA were prepared from recombinant E. coli overexpressing the proteins (J. Cavanagh et al, Amino Adds, 6, 131-140 (1994) and references therein).
# The following stock reagents were either prepared and used promptly or stored at the indicated temperature:
# 8 X Salts: 2M KCl (5 mL), 1M MgCl2 ([…]), 1M CaCl2 ([…]), 10 mg/mL phenylmethylsulfonyl fluoride ([…]), 1M dithioreitol (50 mL), 0.25M Na2 EDTA (32 mL) and H2 O 3.82 mL (-20° C.)
# 5X Loading Dye: 0.5M TRIS-HCl-pH 6.8 (7.5 mL), 10% SDS (2 mL) 0.1% bromophenol blue (0.5 mL), 100% glycerol (3 mL) and 12.5M 2-mercaptoethanol (0.3 mL)
# 1-1.3 mg/mL KinA: 15 mM TRIS-HCl, pH 8.0, 6 mM KCl; 4 mM 2-mercaptoethanol;40% glycerol (-20° C.)
# 1 mg/mL SpoOF: 17.5 mM TRIS-HCl, pH 8.0; 0.7 mM KCl; 0.7 mM MgCl2; 0.7 mM CaCl2; 5 mM 2-mercaptoethanol; 30% Glycerol (-20° C.)
# 5% Stacking Gel: 40% 29:1 acrylamide:bis acrylamide (1.25 mL), 0.5M TRIS-HCl, pH 6.8 (2.5 mL), 10% SDS (0.1 mL), D-H2 O (6.15 mL) 10% ammonium persulfate (100 mL) and TEMED (25 mL)
# SDS Running Buffer: TRIS-BASE (3.02 g), glycine (14.4 g) SDS (1 g), D-H2 O (to 1 L)
# The reaction mixture was prepared from 8X Salts (87 μL), 1M TRIS, pH 8 (118 μL), 50% glycerol (63 μL), SpoOF (14.1 μL) and KinA (7.0 μL). Microcentrifuge tubes were charged with the reaction mixture (18.5 μL) and a 1.0 mM solution of the test compound in 5% DMSO (18.5 μL), and incubated for 15 min on ice. 100 mM ATP solution (3.0 μl, containing 625 μCi [^32 P]ATP) was added, and the mixture left for 10 minutes at room temperature. The reaction was quenched with 5X loading dye (10 μL per tube) and the samples were loaded on a prepared 5% Stacking Gel, or stored on dry ice until ready for use. The prepared wells were filled with SDS Running Buffer, samples were loaded into the wells, and 80 volts were applied to the gel until the dye front reached the bottom of the stacking gel. The voltage was then increased to 250 volts until electrophoresis was complete. Radioactive bands in the gel corresponding to phosphorylated KinA and SpoOF were imaged and quantitated with a phosphoimager.
# If either enzyme was inhibited (as evidenced by the absence of labelled protein in the developed gel), an IC50 was calculated by running the assay with a range of inhibitor concentrations from 1 to 500 μM. After electrophoresis of the reaction mixtures, percent inhibition was determined by measuring the concentration of radioactive phosphorus with a phosphoimager and calculating the values using a software program (BioRad Molecular Analyst). IC50 values of less than 1000 μM are considered active.
row,SMILES,IC50
1,N=C(N)NCCC1Oc2ccc(C(F)(F)F)cc2N(Cc2cccc(Cl)c2)C1=O (stereo not drawn) [Example 18],80 µM
2,Cc1ccc2c(c1)N(Cc1cccc(Cl)c1)C(=O)C(CCNC(=N)N)O2 (stereo not drawn) [Example 19],52 µM
3,N=C(N)NCCC1Oc2cccnc2N(Cc2cccc(Cl)c2)C1=O (stereo not drawn) [Example 20],344 µM
4,N=C(N)NCCC1Oc2ccccc2N(Cc2ccccc2Cl)C1=O (stereo not drawn) [Example 22],325 µM
5,N=C(N)NCCC1Oc2cc([N+](=O)[O-])ccc2N(Cc2cccc(Cl)c2)C1=O (stereo not drawn) [Example 23],182 µM
6,O=C1C(CCSC(=S)N2CCCC2)Oc2ccccc2N1Cc1ccccc1Cl (stereo not drawn) [Example 25],274 µM
